PubChem BioAssay AID1963864 (Molecular Pharmacology Branch, DTP, NCI, 2024)

Test system: KRAS PDC multicell spheroid viability
Assay: Anticancer human tumor 521955-158-R6-J3-PDC patient-derived pancreatic carcinoma cell line growth inhibition [KRAS2]
Conditions: for IC50: curve of first compound; for viability, T/C: stronger effect = lower value; active means viability on the fitted dose curve at most 10% of control; inactive means the rest
How it was run: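 KRAS-mutant tumor cells were grown as spheroids with HUVEC endothelial cells and human MSCs as stroma. Targeted agents were tested alone and with KRAS pathway inhibitors. Doses started at or near clinical Cmax, or 10 microM, descending half-log.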

[1] = second compound 0.1 µM, first compound 0.000316 µM
[2] = second compound 0.1 µM, first compound 0.001 µM
[3] = second compound 0.1 µM, first compound 0.00316 µM
[4] = second compound 0.1 µM, first compound 0.01 µM
[5] = second compound 0.1 µM, first compound 0.0316 µM
[6] = second compound 0.316 µM, first compound 0.000316 µM
[7] = second compound 0.316 µM, first compound 0.001 µM
[8] = second compound 0.316 µM, first compound 0.00316 µM
[9] = second compound 0.316 µM, first compound 0.01 µM
[10] = second compound 0.316 µM, first compound 0.0316 µM
[11] = second compound 1 µM, first compound 0.000316 µM
[12] = second compound 1 µM, first compound 0.001 µM
[13] = second compound 1 µM, first compound 0.00316 µM
[14] = second compound 1 µM, first compound 0.01 µM
[15] = second compound 1 µM, first compound 0.0316 µM
[16] = second compound 3.16 µM, first compound 0.000316 µM
[17] = second compound 3.16 µM, first compound 0.001 µM
[18] = second compound 3.16 µM, first compound 0.00316 µM
[19] = second compound 3.16 µM, first compound 0.01 µM
[20] = second compound 3.16 µM, first compound 0.0316 µM
[21] = second compound 10 µM, first compound 0.000316 µM
[22] = second compound 10 µM, first compound 0.001 µM
[23] = second compound 10 µM, first compound 0.00316 µM
[24] = second compound 10 µM, first compound 0.01 µM
[25] = second compound 10 µM, first compound 0.0316 µM
[26] = second compound 0.1 µM, first compound 0.1 µM
[27] = second compound 0.316 µM, first compound 0.1 µM
[28] = second compound 1 µM, first compound 0.1 µM
[29] = second compound 3.16 µM, first compound 0.1 µM
[30] = second compound 10 µM, first compound 0.1 µM
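Further: drug exposure lasted seven days.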
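Wherever viability, T/C is given: 100% = DMSO vehicle wells and lower means fewer viable cells.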

CC(=O)Nc1cccc(-n2c(=O)n(C3CC3)c(=O)c3c(Nc4ccc(I)cc4F)n(C)c(=O)c(C)c32)c1 + COc1cc2nc(C)nc(NC(C)c3cc(N)cc(C(F)(F)F)c3)c2cc1OC1CCOC1
inactive: viability, T/C (second compound 0.1 µM, first compound 0.0001 µM) 88% | viability, T/C [1] 88.4% | viability, T/C [2] 92.4% | viability, T/C [3] 81.7% | viability, T/C [4] 60.7% | viability, T/C [5] 36.9% | viability, T/C (second compound 0.316 µM, first compound 0.0001 µM) 88.1% | viability, T/C [6] 83.6% | viability, T/C [7] 75.3% | viability, T/C [8] 67.1% | viability, T/C [9] 48.8% | viability, T/C [10] 37.4% | viability, T/C (second compound 1 µM, first compound 0.0001 µM) 81.4% | viability, T/C [11] 86.6% | viability, T/C [12] 81.1% | viability, T/C [13] 67.5% | viability, T/C [14] 55.4% | viability, T/C [15] 31.8% | viability, T/C (second compound 3.16 µM, first compound 0.0001 µM) 72.6% | viability, T/C [16] 79.3% | viability, T/C [17] 76.7% | viability, T/C [18] 54.6% | viability, T/C [19] 45.5% | viability, T/C [20] 21.8% | viability, T/C (second compound 10 µM, first compound 0.0001 µM) 20.7% | viability, T/C [21] 21.2% | viability, T/C [22] 10.6%
0.0167 µM: IC50 (second compound 0.1 µM)
< 0.0001 µM: IC50 (second compound 10 µM)
active: viability, T/C [23] 1.6% | viability, T/C [24] 4.51% | viability, T/C [25] 2.2%
0.0123 µM: IC50 (second compound 1 µM)
0.0102 µM: IC50 (second compound 0.316 µM)
0.00623 µM: IC50 (second compound 3.16 µM)

CN(C)C/C=C/C(=O)Nc1cc2c(Nc3ccc(F)c(Cl)c3)ncnc2cc1O[C@H]1CCOC1 + COc1cc2nc(C)nc(NC(C)c3cc(N)cc(C(F)(F)F)c3)c2cc1OC1CCOC1
0.00284 µM: IC50 (second compound 3.16 µM)
inactive: viability, T/C [1] 89.3% | viability, T/C [2] 78.3% | viability, T/C [3] 72.3% | viability, T/C [4] 61.2% | viability, T/C [5] 54% | viability, T/C [26] 55.5% | viability, T/C [6] 93% | viability, T/C [7] 106% | viability, T/C [8] 78.5% | viability, T/C [9] 65% | viability, T/C [10] 54.7% | viability, T/C [27] 53.2% | viability, T/C [11] 105% | viability, T/C [12] 100% | viability, T/C [13] 89.5% | viability, T/C [14] 61.8% | viability, T/C [15] 56.1% | viability, T/C [28] 48.6% | viability, T/C [16] 84% | viability, T/C [17] 78.2% | viability, T/C [18] 46.9% | viability, T/C [19] 51.1% | viability, T/C [20] 44.4% | viability, T/C [29] 45.5% | viability, T/C [21] 59.8% | viability, T/C [22] 54.9% | viability, T/C [23] 50.2% | viability, T/C [24] 26.2% | viability, T/C [25] 32.8% | viability, T/C [30] 25.4%
> 0.1 µM: IC50 (second compound 0.1 µM) | IC50 (second compound 0.316 µM) | IC50 (second compound 1 µM)
0.0032 µM: IC50 (second compound 10 µM)

COC(=O)c1ccc2c(C(=Nc3ccc(N(C)C(=O)CN4CCN(C)CC4)cc3)c3ccccc3)c(O)[nH]c2c1 + COc1cc2nc(C)nc(NC(C)c3cc(N)cc(C(F)(F)F)c3)c2cc1OC1CCOC1
inactive: viability, T/C [5] 90% | viability, T/C [26] 95.7% | viability, T/C (second compound 0.1 µM, first compound 0.316 µM) 107% | viability, T/C (second compound 0.1 µM, first compound 1 µM) 115% | viability, T/C (second compound 0.1 µM, first compound 3.16 µM) 47.6% | viability, T/C [10] 93.9% | viability, T/C [27] 90.3% | viability, T/C (second compound 0.316 µM, first compound 0.316 µM) 91.4% | viability, T/C (second compound 0.316 µM, first compound 1 µM) 122% | viability, T/C (second compound 0.316 µM, first compound 3.16 µM) 55.2% | viability, T/C [15] 84% | viability, T/C [28] 94.4% | viability, T/C (second compound 1 µM, first compound 0.316 µM) 107% | viability, T/C (second compound 1 µM, first compound 1 µM) 115% | viability, T/C (second compound 1 µM, first compound 3.16 µM) 34.5% | viability, T/C [20] 75.8% | viability, T/C [29] 75.5% | viability, T/C (second compound 3.16 µM, first compound 0.316 µM) 108% | viability, T/C (second compound 3.16 µM, first compound 1 µM) 101% | viability, T/C [25] 42% | viability, T/C [30] 29.7%
3.01 µM: IC50 (second compound 0.1 µM)
3.53 µM: IC50 (second compound 0.316 µM)
2.41 µM: IC50 (second compound 1 µM)
active: viability, T/C (second compound 0.1 µM, first compound 10 µM) 0.24% | viability, T/C (second compound 0.316 µM, first compound 10 µM) 0.21% | viability, T/C (second compound 1 µM, first compound 10 µM) 1.78% | viability, T/C (second compound 3.16 µM, first compound 3.16 µM) 4.81% | viability, T/C (second compound 3.16 µM, first compound 10 µM) 0.15% | viability, T/C (second compound 10 µM, first compound 0.316 µM) 6.94% | viability, T/C (second compound 10 µM, first compound 1 µM) 2.96% | viability, T/C (second compound 10 µM, first compound 3.16 µM) 2.48% | viability, T/C (second compound 10 µM, first compound 10 µM) 0.99%
1.72 µM: IC50 (second compound 3.16 µM)
< 0.0316 µM: IC50 (second compound 10 µM)
